Results published in PMC3314994, “Inhibitors of human histone deacetylase with potent activity against the African trypanosome Trypanosoma brucei” (Bioorganic & Medicinal Chemistry Letters, 2012).
Blank lines part the entries; values can stand above or below the compound they belong to.

How the values were obtained:
Trypanosoma brucei (BSF) = experiment: Growth inhibition of cultured bloodstream form T. brucei; format: cell-based, Trypanosoma brucei (strain 427); conditions: Trypanosoma brucei, cultured bloodstream form, strain 427, triplicate; for IC50: read-out: Trypanosoma brucei (BSF) IC50 ± SD; for IC90: read-out: Trypanosoma brucei (BSF) IC90 ± SD
Procedure: Treatment of parasites with micromolar levels of these inhibitors could result in cell death within 4 h (Fig. 1).
[30] Growth inhibitory properties against cultured bloodstream form T. brucei were determined as described previously.[29] Experiments were performed in triplicate and data are presented as ±SD.

HDAC (FDL_HELA) = experiment: Histone deacetylase activity in HeLa cell lysates (fluorescent assay kit); format: biochemical, Human; conditions: lysed HeLa cells; read-out: HDAC (FDL_HELA) IC50 ± SD
Procedure: (§1) The compounds from the different structural subclasses were all active as HDAC inhibitors, measured in an assay of enzymes in HeLa cell lysates.[23,24] HeLa cells express multiple HDACs, including HDAC 1, 2, 3, 4, and 8.[25–27] […] To further characterise the compounds with respect to HDAC selectivity, we determined their inhibitory properties against recombinant expressed human HDACs (rhHDAC 1–4, 6–9).[28]
[24] Histone deacetylase activity was determined in lysed Human cervix epithelial cancer HeLa cells. To determine the IC50 of test compound a commercially available fluorescent assay kit was used employing an acetylated enzyme substrate.[23]

rhHDAC 1 = rhHDAC 1 (Homo sapiens, UniProt Q13547); experiment: Inhibition of recombinant human HDAC isoforms; format: biochemical; conditions: mean ± SD, triplicate per plate, min two plates; read-out: ED50 rhHDAC 1
From the text: as §1

rhHDAC 2 = rhHDAC 2 (Homo sapiens, UniProt Q92769); experiment: Inhibition of recombinant human HDAC isoforms; format: biochemical; conditions: mean ± SD, triplicate per plate, min two plates; read-out: ED50 rhHDAC 2
From the text: as §1

rhHDAC 3 = rhHDAC 3 (Homo sapiens, UniProt O15379); experiment: Inhibition of recombinant human HDAC isoforms; format: biochemical; conditions: mean ± SD, triplicate per plate, min two plates; read-out: ED50 rhHDAC 3
From the text: as §1

rhHDAC 6 = molecular target: T1, rhHDAC 6 (Homo sapiens, UniProt Q9UBN7); experiment: Inhibition of recombinant human HDAC isoforms; format: biochemical; conditions: mean ± SD, triplicate per plate, min two plates; read-out: ED50 rhHDAC 6
T1 sequence (Q9UBN7 1-1215): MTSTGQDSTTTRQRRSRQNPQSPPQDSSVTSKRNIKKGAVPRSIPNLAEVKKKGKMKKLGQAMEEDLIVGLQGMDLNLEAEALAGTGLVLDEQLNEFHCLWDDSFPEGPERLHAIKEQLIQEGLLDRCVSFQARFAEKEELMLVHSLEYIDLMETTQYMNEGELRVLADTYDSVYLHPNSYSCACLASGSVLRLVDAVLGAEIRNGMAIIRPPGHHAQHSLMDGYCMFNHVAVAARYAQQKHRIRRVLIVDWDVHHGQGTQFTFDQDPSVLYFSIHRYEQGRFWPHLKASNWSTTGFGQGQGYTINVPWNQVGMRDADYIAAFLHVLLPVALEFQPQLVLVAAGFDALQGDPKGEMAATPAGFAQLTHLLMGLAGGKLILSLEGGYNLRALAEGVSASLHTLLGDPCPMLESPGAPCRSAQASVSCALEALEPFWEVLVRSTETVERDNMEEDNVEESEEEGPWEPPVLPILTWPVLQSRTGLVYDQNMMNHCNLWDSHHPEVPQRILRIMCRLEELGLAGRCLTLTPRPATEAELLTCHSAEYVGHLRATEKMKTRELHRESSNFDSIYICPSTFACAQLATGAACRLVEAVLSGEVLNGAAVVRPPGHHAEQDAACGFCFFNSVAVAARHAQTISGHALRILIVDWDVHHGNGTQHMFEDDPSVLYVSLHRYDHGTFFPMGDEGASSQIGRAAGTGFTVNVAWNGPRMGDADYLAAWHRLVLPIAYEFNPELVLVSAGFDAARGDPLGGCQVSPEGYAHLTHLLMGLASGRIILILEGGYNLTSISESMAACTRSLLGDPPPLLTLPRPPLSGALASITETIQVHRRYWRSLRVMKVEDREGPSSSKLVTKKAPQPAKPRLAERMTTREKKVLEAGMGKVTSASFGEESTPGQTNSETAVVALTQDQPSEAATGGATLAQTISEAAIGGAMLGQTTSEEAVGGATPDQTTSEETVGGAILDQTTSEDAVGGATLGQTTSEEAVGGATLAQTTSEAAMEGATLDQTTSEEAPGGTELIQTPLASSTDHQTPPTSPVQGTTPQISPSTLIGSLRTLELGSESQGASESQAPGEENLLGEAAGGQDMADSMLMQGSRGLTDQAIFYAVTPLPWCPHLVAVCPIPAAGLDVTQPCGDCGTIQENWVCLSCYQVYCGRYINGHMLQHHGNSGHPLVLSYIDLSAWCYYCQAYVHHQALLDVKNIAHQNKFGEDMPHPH
From the text: as §1

rhHDAC 8 = molecular target: T2, rhHDAC 8 (Homo sapiens, UniProt Q9BY41); experiment: Inhibition of recombinant human HDAC isoforms; format: biochemical; conditions: mean ± SD, triplicate per plate, min two plates; read-out: ED50 rhHDAC 8
T2 sequence (Q9BY41 1-377): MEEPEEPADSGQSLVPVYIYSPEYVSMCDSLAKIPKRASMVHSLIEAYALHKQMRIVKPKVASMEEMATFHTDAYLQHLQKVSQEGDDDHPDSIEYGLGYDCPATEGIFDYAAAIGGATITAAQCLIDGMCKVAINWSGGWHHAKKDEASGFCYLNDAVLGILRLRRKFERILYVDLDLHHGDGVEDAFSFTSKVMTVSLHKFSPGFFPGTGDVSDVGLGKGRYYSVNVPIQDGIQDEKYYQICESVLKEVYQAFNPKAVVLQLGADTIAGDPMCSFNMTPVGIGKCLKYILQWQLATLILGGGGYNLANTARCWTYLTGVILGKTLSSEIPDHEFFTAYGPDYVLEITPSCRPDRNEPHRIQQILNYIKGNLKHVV
From the text: as §1

rhHDAC 9 = rhHDAC 9 (Homo sapiens, UniProt Q9UKV0); experiment: Inhibition of recombinant human HDAC isoforms; format: biochemical; conditions: mean ± SD, triplicate per plate, min two plates; read-out: ED50 rhHDAC 9
From the text: as §1

rhHDAC 4 = rhHDAC 4 (Homo sapiens, UniProt P56524); experiment: Inhibition of recombinant human HDAC isoforms; format: biochemical; conditions: mean ± SD, triplicate per plate, min two plates; read-out: ED50 rhHDAC 4
From the text: as §1

rhHDAC 7 = molecular target: T3, rhHDAC 7 (Homo sapiens, UniProt Q8WUI4); experiment: Inhibition of recombinant human HDAC isoforms; format: biochemical; conditions: mean ± SD, triplicate per plate, min two plates; read-out: ED50 rhHDAC 7
T3 sequence (Q8WUI4 1-952): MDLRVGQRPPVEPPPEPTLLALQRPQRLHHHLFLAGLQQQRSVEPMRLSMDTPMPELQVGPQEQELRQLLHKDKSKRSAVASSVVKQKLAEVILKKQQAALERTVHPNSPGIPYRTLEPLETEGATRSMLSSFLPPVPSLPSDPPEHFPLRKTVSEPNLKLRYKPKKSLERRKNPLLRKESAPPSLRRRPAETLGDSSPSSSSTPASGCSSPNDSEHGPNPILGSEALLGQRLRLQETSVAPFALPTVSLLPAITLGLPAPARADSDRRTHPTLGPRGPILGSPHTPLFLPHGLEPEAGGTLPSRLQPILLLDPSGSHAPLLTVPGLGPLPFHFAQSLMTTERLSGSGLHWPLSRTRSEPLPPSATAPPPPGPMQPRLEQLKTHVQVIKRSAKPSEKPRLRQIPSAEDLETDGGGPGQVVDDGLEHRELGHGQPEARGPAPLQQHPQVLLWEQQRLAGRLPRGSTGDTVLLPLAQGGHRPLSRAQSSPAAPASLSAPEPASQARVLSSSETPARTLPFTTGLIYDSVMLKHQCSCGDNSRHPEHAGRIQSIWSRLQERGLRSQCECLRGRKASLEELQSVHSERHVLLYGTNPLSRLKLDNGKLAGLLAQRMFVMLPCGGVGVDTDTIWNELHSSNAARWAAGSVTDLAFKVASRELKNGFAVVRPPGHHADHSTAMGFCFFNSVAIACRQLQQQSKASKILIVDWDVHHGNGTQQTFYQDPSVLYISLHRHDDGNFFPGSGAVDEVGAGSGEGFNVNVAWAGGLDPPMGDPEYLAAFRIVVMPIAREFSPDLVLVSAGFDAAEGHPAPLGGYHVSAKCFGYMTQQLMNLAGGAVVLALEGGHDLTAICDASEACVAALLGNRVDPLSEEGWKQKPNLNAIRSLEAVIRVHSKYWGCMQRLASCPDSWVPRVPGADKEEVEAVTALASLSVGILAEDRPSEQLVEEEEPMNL
From the text: as §1

Chain of rhHDAC 2 (Q92769 whole entry, canonical isoform): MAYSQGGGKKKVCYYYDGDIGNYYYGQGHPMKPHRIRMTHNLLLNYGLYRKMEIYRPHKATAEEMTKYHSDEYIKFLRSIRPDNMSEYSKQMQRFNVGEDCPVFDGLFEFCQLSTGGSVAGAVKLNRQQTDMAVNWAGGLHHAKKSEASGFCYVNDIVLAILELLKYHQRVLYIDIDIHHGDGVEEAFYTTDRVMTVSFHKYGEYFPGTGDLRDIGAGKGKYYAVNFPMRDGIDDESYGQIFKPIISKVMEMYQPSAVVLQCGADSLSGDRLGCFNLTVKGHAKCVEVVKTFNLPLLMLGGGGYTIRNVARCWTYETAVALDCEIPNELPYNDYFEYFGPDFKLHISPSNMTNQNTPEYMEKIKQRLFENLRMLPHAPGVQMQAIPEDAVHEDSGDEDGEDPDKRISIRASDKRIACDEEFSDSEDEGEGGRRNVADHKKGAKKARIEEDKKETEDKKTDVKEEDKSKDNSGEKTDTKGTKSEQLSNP
Chain of rhHDAC 1 (Q13547 whole entry, canonical isoform): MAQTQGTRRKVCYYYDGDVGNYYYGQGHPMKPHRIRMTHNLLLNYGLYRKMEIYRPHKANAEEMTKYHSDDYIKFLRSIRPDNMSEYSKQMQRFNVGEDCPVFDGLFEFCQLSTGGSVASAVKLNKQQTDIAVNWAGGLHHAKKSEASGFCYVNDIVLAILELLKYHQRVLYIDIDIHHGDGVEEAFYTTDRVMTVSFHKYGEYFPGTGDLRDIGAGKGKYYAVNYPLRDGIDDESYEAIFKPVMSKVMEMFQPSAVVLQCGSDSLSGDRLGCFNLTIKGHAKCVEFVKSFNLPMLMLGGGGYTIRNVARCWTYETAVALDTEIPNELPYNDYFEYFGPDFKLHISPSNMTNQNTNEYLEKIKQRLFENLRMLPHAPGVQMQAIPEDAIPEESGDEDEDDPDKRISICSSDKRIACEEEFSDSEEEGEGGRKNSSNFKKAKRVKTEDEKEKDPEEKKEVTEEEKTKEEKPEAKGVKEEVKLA
Chain of rhHDAC 3 (O15379 whole entry, canonical isoform): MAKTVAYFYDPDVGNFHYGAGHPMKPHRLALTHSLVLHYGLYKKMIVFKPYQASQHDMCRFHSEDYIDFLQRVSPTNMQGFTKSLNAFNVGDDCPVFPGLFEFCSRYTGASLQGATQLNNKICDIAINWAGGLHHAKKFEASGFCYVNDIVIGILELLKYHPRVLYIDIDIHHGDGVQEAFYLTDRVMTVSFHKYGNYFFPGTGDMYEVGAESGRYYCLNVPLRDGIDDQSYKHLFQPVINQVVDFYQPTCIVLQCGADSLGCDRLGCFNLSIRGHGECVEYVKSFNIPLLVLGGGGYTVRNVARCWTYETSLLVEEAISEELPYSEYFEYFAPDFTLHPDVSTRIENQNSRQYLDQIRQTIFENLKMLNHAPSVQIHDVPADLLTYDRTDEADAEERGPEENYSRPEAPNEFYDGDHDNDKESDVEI
Chain of rhHDAC 3 (Q9Y618 395-489 partner limits assumed): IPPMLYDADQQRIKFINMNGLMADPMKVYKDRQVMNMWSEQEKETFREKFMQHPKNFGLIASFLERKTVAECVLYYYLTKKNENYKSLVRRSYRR
Chain of rhHDAC 9 (Q9UKV0 whole entry, canonical isoform): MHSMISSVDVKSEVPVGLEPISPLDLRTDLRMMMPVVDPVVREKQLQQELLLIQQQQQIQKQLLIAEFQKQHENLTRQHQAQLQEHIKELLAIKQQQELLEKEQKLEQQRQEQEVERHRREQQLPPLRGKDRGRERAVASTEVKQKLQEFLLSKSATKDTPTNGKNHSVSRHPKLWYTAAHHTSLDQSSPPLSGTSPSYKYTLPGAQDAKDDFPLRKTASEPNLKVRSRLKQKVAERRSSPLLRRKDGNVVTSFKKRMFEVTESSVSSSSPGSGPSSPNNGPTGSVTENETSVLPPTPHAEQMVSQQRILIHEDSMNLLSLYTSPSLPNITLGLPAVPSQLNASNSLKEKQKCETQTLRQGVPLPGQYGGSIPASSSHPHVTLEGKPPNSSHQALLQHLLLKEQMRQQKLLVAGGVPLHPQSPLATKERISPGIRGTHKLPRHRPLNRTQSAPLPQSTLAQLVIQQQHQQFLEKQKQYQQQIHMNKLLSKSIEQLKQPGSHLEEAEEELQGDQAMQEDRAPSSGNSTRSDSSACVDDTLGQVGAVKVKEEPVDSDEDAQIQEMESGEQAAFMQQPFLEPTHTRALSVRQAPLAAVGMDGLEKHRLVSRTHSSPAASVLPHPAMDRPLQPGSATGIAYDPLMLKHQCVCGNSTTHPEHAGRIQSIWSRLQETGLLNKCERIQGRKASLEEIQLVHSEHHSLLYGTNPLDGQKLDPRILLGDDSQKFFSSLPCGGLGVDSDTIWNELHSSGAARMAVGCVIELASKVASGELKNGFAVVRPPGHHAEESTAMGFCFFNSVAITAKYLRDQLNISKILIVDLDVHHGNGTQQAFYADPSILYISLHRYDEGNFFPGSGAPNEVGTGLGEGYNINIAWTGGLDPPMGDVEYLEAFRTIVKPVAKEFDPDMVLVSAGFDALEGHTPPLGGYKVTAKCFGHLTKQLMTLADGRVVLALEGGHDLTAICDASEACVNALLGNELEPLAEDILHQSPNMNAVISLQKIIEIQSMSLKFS
Chain of rhHDAC 4 (P56524 whole entry, canonical isoform): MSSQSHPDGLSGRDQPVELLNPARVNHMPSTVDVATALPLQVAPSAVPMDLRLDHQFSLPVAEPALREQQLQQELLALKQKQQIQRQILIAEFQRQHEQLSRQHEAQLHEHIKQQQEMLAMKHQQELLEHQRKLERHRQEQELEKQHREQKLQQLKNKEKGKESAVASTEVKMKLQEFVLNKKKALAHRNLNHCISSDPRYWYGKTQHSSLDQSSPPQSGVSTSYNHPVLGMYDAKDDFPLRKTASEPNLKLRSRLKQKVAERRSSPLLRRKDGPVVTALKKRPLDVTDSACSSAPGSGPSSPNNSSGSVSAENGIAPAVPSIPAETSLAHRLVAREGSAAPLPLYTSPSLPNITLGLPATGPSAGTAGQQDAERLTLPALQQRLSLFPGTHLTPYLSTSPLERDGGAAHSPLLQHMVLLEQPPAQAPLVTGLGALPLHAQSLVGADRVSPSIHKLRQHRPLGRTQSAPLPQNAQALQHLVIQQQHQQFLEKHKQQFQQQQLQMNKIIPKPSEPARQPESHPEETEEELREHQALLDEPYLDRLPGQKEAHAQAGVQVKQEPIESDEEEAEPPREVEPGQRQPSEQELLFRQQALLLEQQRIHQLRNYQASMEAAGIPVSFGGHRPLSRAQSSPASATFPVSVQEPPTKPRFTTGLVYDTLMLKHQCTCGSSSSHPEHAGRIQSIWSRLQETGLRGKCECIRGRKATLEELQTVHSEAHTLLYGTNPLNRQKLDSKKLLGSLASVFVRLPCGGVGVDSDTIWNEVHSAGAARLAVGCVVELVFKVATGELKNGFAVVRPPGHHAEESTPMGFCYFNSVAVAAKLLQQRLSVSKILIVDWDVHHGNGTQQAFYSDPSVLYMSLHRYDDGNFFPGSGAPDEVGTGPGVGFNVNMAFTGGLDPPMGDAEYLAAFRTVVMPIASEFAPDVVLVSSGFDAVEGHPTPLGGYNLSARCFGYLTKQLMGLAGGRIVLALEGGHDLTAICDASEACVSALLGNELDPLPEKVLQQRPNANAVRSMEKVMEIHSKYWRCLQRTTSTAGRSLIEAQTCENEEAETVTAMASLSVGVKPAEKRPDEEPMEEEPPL

- IC50 (Trypanosoma brucei (BSF)): 198 ± 5 nM
- IC90 (Trypanosoma brucei (BSF)): 265 ± 5 nM
- IC50 (HDAC (FDL_HELA)): 22 ± 2 nM
- IC50 (rhHDAC 1): 53 ± 3 nM
- IC50 (rhHDAC 2): 310 ± 28 nM
- IC50 (rhHDAC 3): 96 ± 46 nM
- IC50 (rhHDAC 6): 305 ± 19 nM
- IC50 (rhHDAC 8): 328 ± 193 nM
- IC50 (rhHDAC 9): 145 ± 151 nM
SMILES: COc1ccccc1N1CCN(S(=O)(=O)c2cccc(/C=C/C(=O)NO)c2)CC1 [Compound 12]

- IC50 (Trypanosoma brucei (BSF)): 261 ± 38 nM
- IC90 (Trypanosoma brucei (BSF)): 485 ± 43 nM
- IC50 (HDAC (FDL_HELA)): 269 ± 87 nM
SMILES: O=C(/C=C/c1cccc(S(=O)(=O)N2CCN(Cc3ccc4c(c3)OCO4)CC2)c1)NO [Compound 14]

- IC50 (Trypanosoma brucei (BSF)): 343 ± 17 nM
- IC90 (Trypanosoma brucei (BSF)): 710 ± 17 nM
- IC50 (HDAC (FDL_HELA)): 20 ± 4 nM
- IC50 (rhHDAC 1): 44 ± 0.1 nM
- IC50 (rhHDAC 2): 221 ± 141 nM
- IC50 (rhHDAC 3): 89 ± 32 nM
- IC50 (rhHDAC 4): 65 ± 20 nM
- IC50 (rhHDAC 6): 35 ± 16 nM
- IC50 (rhHDAC 7): 216 ± 133 nM
- IC50 (rhHDAC 8): 211 ± 42 nM
- IC50 (rhHDAC 9): 109 ± 56 nM
SMILES: O=C(/C=C/c1cccc(S(=O)(=O)Nc2cccc(F)c2)c1)NO [Compound 15]

- IC50 (Trypanosoma brucei (BSF)): 353 ± 16 nM
- IC90 (Trypanosoma brucei (BSF)): 648 ± 20 nM
- IC50 (HDAC (FDL_HELA)): 22 nM
SMILES: O=C(/C=C/c1ccc2ccccc2n1)NO [Compound 16]

- IC50 (Trypanosoma brucei (BSF)): 368 ± 23 nM
- IC90 (Trypanosoma brucei (BSF)): 651 ± 83 nM
- IC50 (HDAC (FDL_HELA)): 42 ± 11 nM
SMILES: O=C(/C=C/c1cccc(S(=O)(=O)Nc2ccc(Cl)cc2)c1)NO [Compound 17]

- IC50 (Trypanosoma brucei (BSF)): > 10000 nM
- IC50 (HDAC (FDL_HELA)): 29 ± 16 nM
SMILES: O=C(/C=C/c1ccc2c(c1)OCO2)NCCCCCC(=O)NO [Compound 21]

More lines, now with the values behind:

SMILES: COc1cccc(NS(=O)(=O)c2cccc(/C=C/C(=O)NO)c2)c1 [Compound 13]
- IC50 (Trypanosoma brucei (BSF)): 198 ± 21 nM
- IC90 (Trypanosoma brucei (BSF)): 333 ± 28 nM
- IC50 (HDAC (FDL_HELA)): 22 ± 2 nM

SMILES: COc1ccc(NS(=O)(=O)c2cccc(/C=C/C(=O)NO)c2)cc1 [Compound 18]
- IC50 (Trypanosoma brucei (BSF)): 606 ± 81 nM
- IC90 (Trypanosoma brucei (BSF)): 956 ± 35 nM
- IC50 (HDAC (FDL_HELA)): 13 ± 5 nM
- IC50 (rhHDAC 1): 19 ± 1 nM
- IC50 (rhHDAC 2): 105 ± 64 nM
- IC50 (rhHDAC 3): 23 ± 2 nM
- IC50 (rhHDAC 4): 33 ± 1 nM
- IC50 (rhHDAC 6): 36 ± 3 nM
- IC50 (rhHDAC 7): 42 ± 22 nM
- IC50 (rhHDAC 8): 167 ± 72 nM
- IC50 (rhHDAC 9): 26 ± 3 nM

SMILES: COc1ccc(NS(=O)(=O)c2cccc(/C=C/C(=O)NO)c2)cc1OC [Compound 19]
- IC50 (Trypanosoma brucei (BSF)): 927 ± 57 nM
- IC90 (Trypanosoma brucei (BSF)): 2150 ± 140 nM
- IC50 (HDAC (FDL_HELA)): 23 ± 5 nM

SMILES: O=C(/C=C/c1ccccc1)NCCCCCC(=O)NO [Compound 22]
- IC50 (Trypanosoma brucei (BSF)): > 10000 nM
- IC50 (HDAC (FDL_HELA)): 20 ± 2 nM

SMILES: CC(/C=C/c1ccccc1)=C\C(=O)NCCCCCC(=O)NO [Compound 23]
- IC50 (Trypanosoma brucei (BSF)): > 10000 nM

SMILES: CN(CCCCCC(=O)NO)C(=O)/C=C/C=C/c1ccccc1 [Compound 24]
- IC50 (Trypanosoma brucei (BSF)): > 10000 nM
